In patent US20250144067A1, “PERSONALIZED STARVATION THERAPY FOR CANCER” (Faeth Therapeutics, Inc., priority 2021, published 2025):

What was measured:
[1] = tested on: NCI-H292 lung cancer cells; test: FDA drug screening, complete media vs cholesterol-free media without statin (TABLE 1); type: cell-based, human
[2] = tested on: NCI-H292 lung cancer cells; test: FDA drug screening, complete media vs cholesterol-free media with simvastatin (TABLE 2); type: cell-based, human; details: for Cholesterol-free media + simvastatin (0.04 μM) / Complete Media: NCI-H292 cells
[3] = NCI-H292 cells, cholesterol-free media without statin, FDA drug library screen
[4] = NCI-H292 cells, complete media, FDA drug library screen
[5] = complete vs cholesterol-free media, >0 enhanced anti-cancer activity, about 0 neutral, <0 antagonist
[6] = FDA drug library screen, cholesterol-free media with simvastatin 0.04 μM
[7] = FDA drug library screen, complete media
[8] = complete media minus cholesterol-free media + simvastatin, >0 enhanced anti-cancer activity, about 0 neutral, <0 antagonist
[9] = Complete minus Cholesterol-free, greater than 0 enhanced anti-cancer activity, about 0 neutral, below 0 antagonists
[10] = NCI-H292 cells in cholesterol-free media without statin
[11] = NCI-H292 cells in complete media
[12] = drug in cholesterol-free media with simvastatin 0.04 μM
[13] = complete media vs cholesterol-free media + simvastatin (0.04 μM), >0 enhanced anti-cancer activity, about 0 neutral, <0 antagonist
[14] = Complete minus Cholesterol-free, >0 enhanced anti-cancer activity, about 0 neutral, <0 antagonist
[15] = FDA library drug in cholesterol-free media with simvastatin 0.04 μM
[16] = FDA library drug in complete media
[17] = NCI-H292 cells, cholesterol-free media without statin
[18] = cholesterol-free media with simvastatin 0.04 μM, FDA drug library screen (TABLE 2)
[19] = complete media, FDA drug library screen (TABLE 2)
[20] = complete media minus cholesterol-free media + simvastatin (0.04 μM), >0 enhanced anti-cancer activity, about 0 neutral, <0 antagonist
[21] = Complete minus Cholesterol-free, […]
[22] = complete media vs cholesterol-free media + simvastatin (0.04 μM), […]
[23] = Complete minus Cholesterol-free, greater than 0 enhanced anti-cancer activity, about 0 neutral, below 0 antagonist
[24] = NCI-H292 cells, FDA drug library screen, cholesterol-free media without statin
[25] = NCI-H292 cells, FDA drug library screen, complete media

CCc1cc2c(cc1CC)CC(NC[C@H](O)c1ccc(O)c3[nH]c(=O)ccc13)C2 [Indacaterol]
Cholesterol-free [1, 3]: 0.6776
Complete [1, 4]: 1.376
Difference [1, 5]: 0.70
Cholesterol-free media + simvastatin (0.04 μM) [2, 6]: 0.7696
Complete Media [2, 7]: 1.1
Difference [2, 8]: 0.33

CC1Cc2ccccc2N1NC(=O)c1ccc(Cl)c(S(N)(=O)=O)c1 (stereo not drawn) [Indapamide]
Difference [1, 9]: −0.63
Cholesterol-free [1, 10]: 1.388
Complete [1, 11]: 0.7593
Cholesterol-free media + simvastatin (0.04 μM) [2, 12]: 1.217
Complete Media ([2]; drug in complete media): 0.9676
Difference [2, 13]: −0.25

O=C1Nc2ccccc2/C1=C1/Nc2ccccc2C1=O [Indirubin]
Difference [1, 14]: −0.04
Cholesterol-free [1, 3]: 0.7727
Complete [1, 4]: 0.7337
Cholesterol-free media + simvastatin (0.04 μM) [2, 15]: 0.8483
Complete Media [2, 16]: 0.5782
Difference [2, 13]: −0.27

COc1ccc2c(c1)c(CC(=O)O)c(C)n2C(=O)c1ccc(Cl)cc1 [Indomethacin (sodium hydrate)]
Cholesterol-free [1, 17]: 1.164
Complete ([1]; NCI-H292 cells, complete media): 0.8005
Difference ([1]; complete vs cholesterol-free media, greater than 0 enhanced anti-cancer activity, about 0 neutral, below 0 antagonists): −0.36
Cholesterol-free media + simvastatin (0.04 μM) [2, 18]: 0.9744
Complete Media [2, 19]: 0.911
Difference [2, 20]: −0.06

COc1ccc2c(c1)c(CC(=O)O)c(C)n2C(=O)c1ccc(Cl)cc1 [Indomethacin]
Difference [1, 9]: −0.82
Cholesterol-free [1, 10]: 1.574
Complete [1, 11]: 0.7546
Cholesterol-free media + simvastatin (0.04 μM) [2, 6]: 1.269
Complete Media [2, 7]: 1.474
Difference [2, 8]: 0.20

C/C=C(/C)C(=O)O[C@H]1C(C)=C[C@]23C(=O)[C@@H](C=C(CO)[C@@H](O)[C@]12O)[C@H]1[C@@H](C[C@H]3C)C1(C)C [Ingenol Mebutate]
Cholesterol-free [1, 17]: 0.6991
Complete ([1]; NCI-H292 cells, complete media): 0.3918
Difference ([1]; complete vs cholesterol-free media, […]): −0.31
Cholesterol-free media + simvastatin (0.04 μM) ([2]; cholesterol-free media with simvastatin 0.04 μM, […]): 0.2962
Complete Media ([2]; complete media, […]): 0.4169
Difference ([2]; complete media minus cholesterol-free media + simvastatin, […]): 0.12

CC1=C[C@]23C(=O)[C@@H](C=C(CO)[C@@H](O)[C@]2(O)[C@H]1O)[C@H]1[C@@H](C[C@H]3C)C1(C)C [Ingenol]
Difference [1, 21]: −0.29
Cholesterol-free [1, 17]: 0.932
Complete ([1]; NCI-H292 cells, complete media): 0.6376
Cholesterol-free media + simvastatin (0.04 μM) [2, 6]: 1.056
Complete Media [2, 7]: 0.969
Difference [2, 22]: −0.09

CC(=O)Nc1ccc(C(=O)O)cc1.CC(=O)Nc1ccc(C(=O)O)cc1.CC(=O)Nc1ccc(C(=O)O)cc1.CC(O)CN(C)C.CC(O)CN(C)C.CC(O)CN(C)C.O=c1[nH]cnc2c1ncn2[C@@H]1O[C@H](CO)[C@@H](O)[C@H]1O [Inosine pranobex]
Difference [1, 21]: −0.24
Cholesterol-free [1, 17]: 1.096
Complete ([1]; NCI-H292 cells, complete media): 0.8599
Cholesterol-free media + simvastatin (0.04 μM) [2, 12]: 1.233
Complete Media ([2]; drug in complete media): 0.9799
Difference [2, 22]: −0.25

O=c1[nH]cnc2c1ncn2[C@@H]1O[C@H](CO)[C@@H](O)[C@H]1O [Inosine]
Difference [1, 14]: 0.02
Cholesterol-free [1, 3]: 0.9203
Complete [1, 4]: 0.941
Cholesterol-free media + simvastatin (0.04 μM) [2, 6]: 0.924
Complete Media [2, 7]: 1.085
Difference [2, 8]: 0.16

O=C(CCCCC(=O)Nc1c(I)cc(I)c(C(=O)O)c1I)Nc1c(I)cc(I)c(C(=O)O)c1I [Iodipamide]
Difference [1, 23]: −0.08
Cholesterol-free [1, 24]: 0.9527
Complete [1, 25]: 0.876
Cholesterol-free media + simvastatin (0.04 μM) [2, 12]: 1.387
Complete Media ([2]; drug in complete media): 1.135
Difference [2, 13]: −0.25

CC(=O)N(CC(O)CN(C(C)=O)c1c(I)c(C(=O)NCC(O)CO)c(I)c(C(=O)NCC(O)CO)c1I)c1c(I)c(C(=O)NCC(O)CO)c(I)c(C(=O)NCC(O)CO)c1I (stereo not drawn) [Iodixanol]
Cholesterol-free [1, 3]: 0.9782
Complete [1, 4]: 1.054
Difference [1, 5]: 0.08
Cholesterol-free media + simvastatin (0.04 μM) [2, 18]: 1.197
Complete Media [2, 19]: 1.164
Difference [2, 20]: −0.03

CC(=O)N(CC(O)CO)c1c(I)c(C(=O)NCC(O)CO)c(I)c(C(=O)NCC(O)CO)c1I (stereo not drawn) [Iohexol]
Difference [1, 23]: −0.14
Cholesterol-free [1, 24]: 1.062
Complete [1, 25]: 0.9228
Cholesterol-free media + simvastatin (0.04 μM) [2, 15]: 1.632
Complete Media [2, 16]: 0.8317
Difference [2, 13]: −0.80

C[C@H](O)C(=O)Nc1c(I)c(C(=O)NC(CO)CO)c(I)c(C(=O)NC(CO)CO)c1I [Iopamidol]
Difference [1, 23]: −0.15
Cholesterol-free [1, 24]: 1.136
Complete [1, 25]: 0.9871
Cholesterol-free media + simvastatin (0.04 μM) [2, 15]: 1.516
Complete Media [2, 16]: 1.092
Difference [2, 13]: −0.42
